Assay results from the supplement of paper PMC10307832.

Columns and labels:
Assay in all cases: relative viability (nuclei count vs DMSO), 5 days (fraction); higher = more cells survive
4EGI-1 + Navitoclax = compound: O=C(O)C(Cc1ccccc1[N+](=O)[O-])=NNc1nc(-c2ccc(Cl)c(Cl)c2)cs1 (mixture of isomers) [4EGI-1] + CC1(C)CCC(c2ccc(Cl)cc2)=C(CN2CCN(c3ccc(C(=O)NS(=O)(=O)c4ccc(N[C@H](CCN5CCOCC5)CSc5ccccc5)c(S(=O)(=O)C(F)(F)F)c4)cc3)CC2)C1 [Navitoclax] (partner 0.5 µM)
Outline: (§1)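 The day after seeding in 1536-well plates, lung cancer cell lines were treated by pin tool with a single drug, or with a fixed anchor-drug dose together with five library-drug doses (not always all listed) in √10 steps. After 5 days, a combined fix-and-stain solution (final 0.05% Triton X-100, 1% formaldehyde, 1 ug/ml Hoechst) was added. Nuclei counted on 4× images gave relative viability as treated counts over vehicle counts, reported as the median of duplicate plates.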

XMD8-85 + Dasatinib = compound: CN1CCN(CC1)C2=CC(=C(C=C2)NC3=NC=C4C(=N3)N(C5=CC=CC=C5C(=O)N4C)C)OC [XMD8-85] + Cc1nc(Nc2ncc(C(=O)Nc3c(C)cccc3Cl)s2)cc(N2CCN(CCO)CC2)n1 [Dasatinib] (partner 0.075 µM)
Outline: as §1

4EGI-1 + Luminespib = compound: O=C(O)C(Cc1ccccc1[N+](=O)[O-])=NNc1nc(-c2ccc(Cl)c(Cl)c2)cs1 (mixture of isomers) [4EGI-1] + CCNC(=O)c1noc(-c2cc(C(C)C)c(O)cc2O)c1-c1ccc(CN2CCOCC2)cc1 [Luminespib] (partner 0.01 µM)
Outline: as §1

4EGI-1 + Palbociclib = compound: O=C(O)C(Cc1ccccc1[N+](=O)[O-])=NNc1nc(-c2ccc(Cl)c(Cl)c2)cs1 (mixture of isomers) [4EGI-1] + CC(=O)c1c(C)c2cnc(Nc3ccc(N4CCNCC4)cn3)nc2n(C2CCCC2)c1=O [Palbociclib] (partner 0.5 µM)
Outline: as §1

NCI-H1792
relative viability (4EGI-1 + Navitoclax; first compound 0.5 µM): 0.618
relative viability (4EGI-1 + Navitoclax; first compound 1.581 µM): 0.498
relative viability (4EGI-1 + Navitoclax; first compound 5 µM): 0.607
relative viability (4EGI-1 + Navitoclax; first compound 15.81 µM): 0.552
relative viability (4EGI-1 + Navitoclax; first compound 50 µM): 0.542
relative viability (XMD8-85 + Dasatinib; first compound 0.253 µM): 0.749
relative viability (XMD8-85 + Dasatinib; first compound 2.53 µM): 1.15
relative viability (XMD8-85 + Dasatinib; first compound 8 µM): 0.85
relative viability (4EGI-1 + Luminespib; first compound 0.5 µM): 0.917
relative viability (4EGI-1 + Luminespib; first compound 1.581 µM): 0.414
relative viability (4EGI-1 + Luminespib; first compound 5 µM): 0.411
relative viability (4EGI-1 + Luminespib; first compound 15.81 µM): 0.37
relative viability (4EGI-1 + Luminespib; first compound 50 µM): 0.236
relative viability (4EGI-1 + Palbociclib; first compound 0.5 µM): 0.75
relative viability (4EGI-1 + Palbociclib; first compound 1.581 µM): 0.695
relative viability (4EGI-1 + Palbociclib; first compound 5 µM): 0.723
relative viability (4EGI-1 + Palbociclib; first compound 15.81 µM): 0.575
relative viability (4EGI-1 + Palbociclib; first compound 50 µM): 0.646
